{"source": "patent US20240324590A1", "about": "“COMBINATIONS OF TRIAZOLINONE HERBICIDES WITH SAFENERS” (UPL CORPORATION LIMITED, priority 2021, published 2024)", "assay_type_in_all_cases": "in vivo", "key": {"corn crop [1]": {"system": "corn crop", "assay": "% phytotoxicity in corn crop after spraying tank mix", "conditions": "for Phytotoxicity (%) in corn crop: flucarbazone 30 g ai/ha, safener cyprosulfamid 66 / isoxadifen 38 / mefenpyr 30 g ai/ha", "protocol": "Treatment: The present invention has employed a tank mix combination of Flucarbazone and Cyprosulfamid as the safener to evaluate its percentage phytotoxicity and its efficacy in the control of weeds.\nThe tank mix combination of Flucarbazone and Cyprosulfamid as the safener was formulated and the combination was sprayed onto corn crop and the results on the phytotoxicity in corn were determined. These observations relating to % phytotoxicity were made during a time interval of over a month. The duration at which the % phytotoxicity were determined at time intervals as follows: 3 DAA (3 days after application), 5 DAA (5 days after application), 7 DAA (7 days after application), 14 DAA (14 days after application), 21 DAA (21 days after application); 28 DAA (28 days after application); 35 DAA (35 days after application); 42DAA (42 days after application).\n• (i) Treatment: The present invention has employed a tank mix of Flucarbazone and Isoxadifen as the safener to evaluate its percentage phytotoxicity in corn crop. • (ii) % Phytotoxicity: This % phytotoxicity was observed by the present inventors to be as high as 48% at 14 DAA in crops treated with Flucarbazone and Isoxadifen.\nB) Flucarbazone with Mefenpyr as the Safener • (i) Treatment: The present invention has employed a tank mix combination of Flucarbazone and […] as the safener to evaluate its percentage phytotoxicity in corn crop."}, "redroot pigweed": {"system": "redroot pigweed", "assay": "% efficacy of weed control against redroot pigweed in corn crop", "conditions": "for % Efficacy for control of weeds: redroot pigweed in corn crop, flucarbazone 30 g ai/ha, cyprosulfamid 66 g ai/ha", "protocol": "The tank mix combination of Flucarbazone and Cyprosulfamid as the safener was formulated and the combination was sprayed onto corn crop and the results on the efficacy in weed control were determined."}, "corn crop [2]": {"system": "corn crop", "assay": "Height of corn plants after treatment, greenhouse", "conditions": "for Crop height (cm) at 14 DAA: safener 90 g ai/ha", "protocol": "(§1) The combination of flucarbazone with safeners selected from cyprosulfamid and isoxadifen were evaluated in terms of the increase or decrease in height of the treated corn crop (cm) and % phytotoxicity. The experimental evaluations were conducted under greenhouse conditions with 4 repetitions, using a spray volume of […]. The different corn varieties tested were SYN8A98 TLTG and XB 8010.\nThe observations for determining corn height were made at 14 DAA (days after application) of the herbicide. The treatment employed and the corresponding observations are detailed in the table 8 (i) & (ii) below: […]"}, "corn crop [3]": {"system": "corn crop", "assay": "% phytotoxicity on corn varieties, greenhouse", "conditions": "flucarbazone 45 g ai/ha alone", "protocol": "as §1\nThe observations for determining corn height were made at 7 DAA (days after application), 14 DAA and 21 DAA, of the herbicide. The treatment employed and the corresponding observations are detailed in the table 9 (i) & (ii) below: […]"}}, "data": [{"smiles": "COc1nn(C(=O)NS(=O)(=O)c2ccccc2OC(F)(F)F)c(=O)n1C", "note": "[flucarbazone, Flucarbazone]", "values": [{"measurement": "Phytotoxicity (%) in corn crop", "setting": "corn crop [1]; 3DAA & 5DAA, sub-column 1 of 3 (unlabelled)", "result": 0, "unit": "%"}, {"measurement": "Phytotoxicity (%) in corn crop", "setting": "corn crop [1]; 3DAA & 5DAA, sub-column 3 of 3 (unlabelled)", "result": 0, "unit": "%"}, {"measurement": "Phytotoxicity (%) in corn crop", "setting": "corn crop [1]; 3DAA & 5DAA", "result": 0, "unit": "%"}, {"measurement": "Phytotoxicity (%) in corn crop", "setting": "corn crop [1]; 7DAA, sub-column 1 of 3 (unlabelled)", "result": 28.8, "unit": "%"}, {"measurement": "Phytotoxicity (%) in corn crop", "setting": "corn crop [1]; 7DAA, sub-column 3 of 3 (unlabelled)", "result": 28.8, "unit": "%"}, {"measurement": "Phytotoxicity (%) in corn crop", "setting": "corn crop [1]; 7DAA", "result": 28.8, "unit": "%"}, {"measurement": "Phytotoxicity (%) in corn crop", "setting": "corn crop [1]; 14 DAA, sub-column 1 of 3 (unlabelled)", "result": 51.3, "unit": "%"}, {"measurement": "Phytotoxicity (%) in corn crop", "setting": "corn crop [1]; 14 DAA, sub-column 3 of 3 (unlabelled)", "result": 50, "unit": "%"}, {"measurement": "Phytotoxicity (%) in corn crop", "setting": "corn crop [1]; 14 DAA", "result": 53.8, "unit": "%"}, {"measurement": "Phytotoxicity (%) in corn crop", "setting": "corn crop [1]; 21DAA, sub-column 1 of 3 (unlabelled)", "result": 50, "unit": "%"}, {"measurement": "Phytotoxicity (%) in corn crop", "setting": "corn crop [1]; 21DAA, sub-column 3 of 3 (unlabelled)", "result": 46.3, "unit": "%"}, {"measurement": "Phytotoxicity (%) in corn crop", "setting": "corn crop [1]; 21DAA", "result": 51.3, "unit": "%"}, {"measurement": "Phytotoxicity (%) in corn crop", "setting": "corn crop [1]; 28DAA, sub-column 1 of 3 (unlabelled)", "result": 47.5, "unit": "%"}, {"measurement": "Phytotoxicity (%) in corn crop", "setting": "corn crop [1]; 28DAA, sub-column 3 of 3 (unlabelled)", "result": 39.8, "unit": "%"}, {"measurement": "Phytotoxicity (%) in corn crop", "setting": "corn crop [1]; 28DAA", "result": 56.3, "unit": "%"}, {"measurement": "Phytotoxicity (%) in corn crop", "setting": "corn crop [1]; 35DAA, sub-column 1 of 3 (unlabelled)", "result": 44.9, "unit": "%"}, {"measurement": "Phytotoxicity (%) in corn crop", "setting": "corn crop [1]; 35DAA, sub-column 3 of 3 (unlabelled)", "result": 39.9, "unit": "%"}, {"measurement": "Phytotoxicity (%) in corn crop", "setting": "corn crop [1]; 35DAA", "result": 53.8, "unit": "%"}, {"measurement": "Phytotoxicity (%) in corn crop", "setting": "corn crop [1]; 42DAA, sub-column 1 of 3 (unlabelled)", "result": 42.4, "unit": "%"}, {"measurement": "Phytotoxicity (%) in corn crop", "setting": "corn crop [1]; 42DAA, sub-column 3 of 3 (unlabelled)", "result": 38.7, "unit": "%"}, {"measurement": "Phytotoxicity (%) in corn crop", "setting": "corn crop [1]; 42DAA", "result": 48.7, "unit": "%"}, {"measurement": "% phytotoxicity levels in corn crop", "setting": "corn crop [1]; at 14 DAA, highest level stated in text", "result": "up to 50%"}, {"measurement": "% phytotoxicity in corn crop", "setting": "corn crop [1]; over a period of one month after application", "result": "significant damage"}, {"measurement": "% Efficacy for control of weeds", "setting": "redroot pigweed; 7 DAA", "result": 22.5, "unit": "%"}, {"measurement": "% Efficacy for control of weeds", "setting": "redroot pigweed; 14 DAA", "result": 42.5, "unit": "%"}, {"measurement": "% Efficacy for control of weeds", "setting": "redroot pigweed; 21 DAA", "result": 45, "unit": "%"}, {"measurement": "% Efficacy for control of weeds", "setting": "redroot pigweed; 28 DAA", "result": 48.8, "unit": "%"}, {"measurement": "% Efficacy for control of weeds", "setting": "redroot pigweed; 35 DAA", "result": 48.8, "unit": "%"}, {"measurement": "% Efficacy for control of weeds", "setting": "redroot pigweed; 42 DAA", "result": 48.8, "unit": "%"}, {"measurement": "% efficacy control of redroot pigweed", "setting": "redroot pigweed; over a duration of one month, corn crop", "result": "reduced % efficacy"}, {"measurement": "Height of the corn plants", "setting": "corn crop [2]; 14 DAA, compared with untreated corn", "result": "reduction in height"}, {"measurement": "Crop height (cm) at 14 DAA", "setting": "corn crop [2]; corn variety SYN8A98 TLTG, flucarbazone 30 g ai/ha", "result": 14, "unit": "cm"}, {"measurement": "Crop height (cm) at 14 DAA", "setting": "corn crop [2]; corn variety XB 8010, flucarbazone 30 g ai/ha", "result": 11, "unit": "cm"}, {"measurement": "% phytotoxocity of corn crop variety P4285VYHR", "setting": "corn crop [3]; 7DAA", "result": 26, "unit": "ab %"}, {"measurement": "% phytotoxocity of corn crop variety SYN8A98 TLTG", "setting": "corn crop [3]; 7DAA", "result": 19, "unit": "cd %"}, {"measurement": "% phytotoxocity of corn crop variety XB 8010", "setting": "corn crop [3]; 7DAA", "result": 28, "unit": "a %"}, {"measurement": "% phytotoxocity of corn crop variety P4285VYHR", "setting": "corn crop [3]; 14 DAA", "result": 34, "unit": "b %"}, {"measurement": "% phytotoxocity of corn crop variety SYN8A98 TLTG", "setting": "corn crop [3]; 14 DAA", "result": 47, "unit": "ab %"}, {"measurement": "% phytotoxocity of corn crop variety XB 8010", "setting": "corn crop [3]; 14 DAA", "result": 52, "unit": "ab %"}, {"measurement": "% phytotoxocity of corn crop variety P4285VYHR", "setting": "corn crop [3]; 21 DAA", "result": 32, "unit": "b %"}, {"measurement": "% phytotoxocity of corn crop variety SYN8A98 TLTG", "setting": "corn crop [3]; 21 DAA", "result": 48, "unit": "bc %"}, {"measurement": "% phytotoxocity of corn crop variety XB 8010", "setting": "corn crop [3]; 21 DAA", "result": 51, "unit": "ab %"}]}]}
